Assay results reported in patent US10676746B2, “Methods for identifying therapeutic targets and treating monitoring cancers” (Fred Hutchinson Cancer Research Center, priority 2013, dated 2020).
Entries after “also recorded” stand apart in the source; their conditions may differ.

Columns and labels:
PCI-15B xenografts = assay: Xenograft tumor model; format: in vivo, mice
HNSCC cells [1] = assay: Dose-response curves with kinase inhibitors, CellTiterGlo viability, HNSCC cells; format: cell-based, human; conditions: for IC50: Homo sapiens; for effect on viability of p53 mutant HNSCC cells: autologous pairs UMSCC-14A, UMSCC-14C, PCI-15A, PCI-15B, result in words
Experimental: (§1) Kinase inhibition dose response curves were performed with six kinase inhibitors (MK-1775 (a.k.a., […]), TAE684, PI828, PIK93, PP2, PF-562271) against kinase targets (WEE1, ALK, PI3K, PIK4CB, FYN, FAK (ILK surrogate)), respectively. Kinase inhibitors: MK-1775 (S1525), PIK93 (S1489), TAE684 (S1108) were obtained from Selleck Chemicals (Houston, Tex.); PI828 (2814), PP2 (1407) from Tocris Bioscience (Mpls, Minn.), and PF-562271 from Synkinase (San Diego, Calif.). All HNSCC (UMSCC-17A, UM-SCC47A, PCI-15A, PCI-15B, UM-SCC14A, UM-SCC14C) and MSCC (CK1: p53+/+ and CK4: p53−/−) cells were plated at ˜5-10×10^3 cells/100 μl per well, and incubated at 37° C. for ˜24 hours on 96-well assay plates (Corning Inc.). Serial dilutions of the kinase inhibitors and vehicle control (DMSO) were prepared in 1 mL assay blocks at 3× working concentration to generate dose-response curves ranging from 100 μM to 0.03 μM. All serial dilutions were prepared using cell culture media. Approximately 72 hours post-treatment, cells were assessed for metabolic activity via ATP using CellTiterGlo (Promega), following the protocol outlined by the manufacturer utilizing an FLx800, and/or a Synergy H4 Hybrid multi-mode reader (Biotek). All assays were performed in triplicate and normalized to wells with no treatment. Dose-response curves and IC50 values were generated using GraphPad Prism Version 5 (Parameters: nonlinear regression fit; equation=log (inhibitor) vs. response−variable slope (four parameters); single constraint).

MSCC cells = assay: Dose-response curves with kinase inhibitors, CellTiterGlo viability, MSCC cells; format: cell-based, murine; conditions: for IC50: Mus musculus
Experimental: as §1

[2] = tested on: HNSCC cells (PCI-15B, UMSCC-17A); assay: Mitotic entry and cell cycle analysis by flow cytometry; format: cell-based, human; conditions: for mitotic entry, phospho-histone H3 (serine 10): 1 μM
Experimental: (§2) Mitotic entry was assessed as previously described (Aarts, M. et al, Cancer Discov 2012; 2:524-39). Briefly, HNSCC cells (PCI-15B, UMSCC-17A) were treated with 1 μM MK-1775 for 8 and 24 hours, and all cells were harvested, washed, and incubated with rabbit monoclonal antibody to phospho-histone H3 (Serine10) (Cell Signaling Technology, Cat. No. 3465, Danvers, Mass.) for 2 hours at RT, washed, and DNA stained with 20 μg/ml propidium iodide, RNaseA in PBS (Sigma-Aldrich; Cat. Nos. P4170, R6513). Flow cytometric analysis was performed utilizing a BD FACS Canto II, and profiles analyzed with BD Cell Quest software (Becton Dickinson, CA). Caspase-3/7 dependent apoptosis was assessed as per protocol (Promega, Cat. No. G8091) utilizing a SynergyH4 Hybrid Reader (Biotek, VT). AUCs were calculated for all treatments and vehicle (DMSO) for all cell lines utilizing two measurements over a 48-hour period with three concentrations (30 nm, 100 nm, 1 μM) of MK-1775.

HNSCC cells [3] = assay: Caspase-3/7 dependent apoptosis assay; format: cell-based, human; conditions: p53 mutant cells
Experimental: as §2

WEE1 = assay: Immunoblotting of xenograft tumor lysates; format: in vivo; conditions: oral MK-1775 treated mice vs vehicle
Text: Tumor tissues were minced and homogenized on ice in M-PER Mammalian Protein Extraction Reagent supplemented with Halt Protease and Phosphatase Inhibitor Cocktail (Thermo Fisher Scientific). Extracted proteins were quantified by a BCA protein assay (Thermo Fisher Scientific). […] Anti-WEE1 (Cat. No. 4936), anti-phospho-WEE1 ([…]) (Cat. No. 4910), anti-CDC2 (Cat. No. 9112), and anti-phospho-CDC2 (Tyr15) (Cat. No. 4539) antibodies were purchased from Cell Signaling Technology (Danvers, Mass.). The secondary antibodies used were ZyMaxTM horseradish peroxidase (HRP) conjugated goat-anti-rabbit IgG (Life Technologies). HRP was detected with SuperSignal West Pico Chemiluminescent Substrate kit (Thermo Fisher Scientific).

[4] = parameters: species or system mice; conditions: mouse, in vivo
Experimental: PCI-15B cells were inoculated subcutaneously into the right flanks of 28 eight-week old NOD/SCID IL2 gamma null mice (NSG) provided by the Olson laboratory at the Fred Hutchinson Cancer Research Center. When tumors reached a palpable mass of >50 mm^3, mice were randomly assigned into four treatment groups of seven mice each and all measurements and treatment regimens were carried out using a double-blind protocol. The WEE1 inhibitor MK-1775 (S1525-Selleck Chemicals, Houston, Tex.) was delivered by oral gavage (30 mg/kg) twice per week for 4 weeks in dimethylsulfoxide in 0.5% methylcellulose (M0512, Sigma Aldrich) in a 1:14 suspension. Cisplatin (P4394, cis-diammineplatinum (II) dichloride, Sigma Aldrich) was delivered via intra-peritoneal injection (4.0 mg/kg) once a week for 4 weeks. The volume of the implanted tumor was measured weekly with calipers and tumor volumes calculated using the formula: V=L×W^2/2; in which V, volume (mm^3); L, largest diameter (mm); W, smallest diameter (mm). All animal protocols were approved by the Fred Hutchinson Cancer Research Center Laboratory Animal Care and Use Committee.

[5] = p53−/− (p53 deficient) MSCC cells

N.N.[Cl][Pt][Cl] [cisplatin, cis-diammineplatinum (II) dichloride]
tumor regression (reduction) (PCI-15B xenografts; cisplatin 4.0 mg/kg i.p. once a week, 4 weeks, MK-1775 given 24 hours after cisplatin): 60%

C=CCn1c(=O)c2cnc(Nc3ccc(N4CCN(C)CC4)cc3)nc2n1-c1cccc(C(C)(C)O)n1 [MK-1775]
IC50 (HNSCC cells [1]; UMSCC14A, p53 mutant UMSCC-14A and UMSCC-14C cells and p53 wild type UMSCC-47 cells (intermediate)): 580 to 1100 nM | IC50 (HNSCC cells [1]; p53 mutant PCI-15A and PCI-15B HNSCC cells): 140 to 170 nM | IC50 (HNSCC cells [1]; p53 wild type UMSCC-17A cells): 4500 nM | effect on viability of p53 mutant HNSCC cells (HNSCC cells [1]): sensitive; also recorded: impairs viability | IC50 (MSCC cells; p53 wild type MSCC cells): 4500 nM | IC50 (MSCC cells; [5]): 220 nM | IC50 lower in p53−/− MSCC cells compared to p53 wild type cells (MSCC cells; p53−/− vs p53 wild type MSCC): 20 fold | 4N DNA content ([2]; p53 mutant cells): loss | subG1 DNA content ([2]; p53 mutant cells): increase | mitotic entry, phospho-histone H3 (serine 10) ([2]; p53 mutant cells (PCI-15B)): unscheduled mitotic entry | mitotic entry, phospho-histone H3 (serine 10) ([2]; p53 wild type cells (UMSCC-17A)): not | apoptotic marker caspase 3/7 (HNSCC cells [3]): activation | inhibition of growth of HNSCC tumors as compared to vehicle (PCI-15B xenografts; 30 mg/kg oral gavage twice weekly, 4-week protocol): 66% | phosphorylation of WEE1 in tumor lysates (WEE1): reduced phosphorylation | phosphorylation of WEE1 substrate CDC2 in tumor lysates (WEE1): reduced phosphorylation | tolerability of dosing regime [4]: well-tolerated

CN(c1ncccc1CNc1nc(Nc2ccc3c(c2)CC(=O)N3)ncc1C(F)(F)F)S(C)(=O)=O [PF-562271]
effect on viability of p53 mutant HNSCC cells (HNSCC cells [1]): sensitive; also recorded: impairs viability

CC(=O)Nc1nc(C)c(-c2ccc(Cl)c(S(=O)(=O)NCCO)c2)s1 [PIK93]
effect on viability of p53 mutant HNSCC cells (HNSCC cells [1]): sensitive; also recorded: impairs viability

COc1cc(N2CCC(N3CCN(C)CC3)CC2)ccc1Nc1ncc(Cl)c(Nc2ccccc2S(=O)(=O)C(C)C)n1 [TAE684]
effect on viability of p53 mutant HNSCC cells (HNSCC cells [1]): sensitive; also recorded: impairs viability

NC(=O)Nc1cc(-c2cccc(F)c2)sc1C(=O)N[C@H]1CCCNC1 [AZD7762]
IC50 (MSCC cells; p53 wild type MSCC cells): 2200 nM | IC50 (MSCC cells; [5]): 130 nM

Nc1ccc(-c2cccc3c(=O)cc(N4CCOCC4)oc23)cc1 [PI828]
effect on viability of p53 mutant HNSCC cells (HNSCC cells [1]): impairs viability

CC(C)(C)n1nc(-c2ccc(Cl)cc2)c2c(N)ncnc21 [PP2]
effect on viability of p53 mutant HNSCC cells (HNSCC cells [1]): impairs viability
